These results are taken from patent publication US6709851B1, “Stabilization of helicobacter urease” (OraVax-Merieux Co., priority 1997, dated 2004).

“Also recorded” adds a separate entry of the source. Like-named read-outs stand apart in the source and are kept apart here.

In data set [1] the target is T1, recombinant H. pylori apourease (Helicobacter pylori, UniProt P69996). It is filed as biochemical. The conditions noted are these: for activation of modified urease after removal of excess modifying agent: excess agent removed by diafiltration; for activation with Ni++ and bicarbonate of urease modified by the compound: urease modified before activation.
T1 sequence (P69996 whole entry, looked up): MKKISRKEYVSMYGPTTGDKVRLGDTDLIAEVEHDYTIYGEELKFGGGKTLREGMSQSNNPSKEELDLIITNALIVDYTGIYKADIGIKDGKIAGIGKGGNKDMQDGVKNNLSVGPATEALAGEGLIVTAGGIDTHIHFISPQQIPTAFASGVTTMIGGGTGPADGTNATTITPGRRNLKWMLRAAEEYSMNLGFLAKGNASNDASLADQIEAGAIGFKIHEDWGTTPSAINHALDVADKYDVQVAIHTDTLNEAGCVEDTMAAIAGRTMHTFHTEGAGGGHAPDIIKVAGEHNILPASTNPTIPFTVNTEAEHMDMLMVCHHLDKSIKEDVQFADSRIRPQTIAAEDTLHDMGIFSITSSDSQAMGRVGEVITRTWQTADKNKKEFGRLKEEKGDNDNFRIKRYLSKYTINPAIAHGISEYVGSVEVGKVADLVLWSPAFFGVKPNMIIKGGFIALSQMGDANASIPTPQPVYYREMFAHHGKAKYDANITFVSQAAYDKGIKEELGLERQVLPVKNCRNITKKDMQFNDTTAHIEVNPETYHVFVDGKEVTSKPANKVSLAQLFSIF
Data set [2] has as its target T1, recombinant H. pylori apourease. It is filed as biochemical. The conditions noted are these: for effect of imidazole on activation by Ni++ and bicarbonate: imidazole 2.5-25 mM, 200 mM bicarbonate, 200 μM Ni++.
A short description of data set [3]: Molecular stability and aggregation of urease by analytical size exclusion HPLC. The conditions noted are these: for effect of additive on molecular association of urease: dialysis against PBS and storage at 4° C.; for effect of blocking free sulfhydryl groups on molecular association of urease: treated urease in solution or dialyzed in PBS. Background: Size exclusion chromatography separates by hydrodynamic size, large species first.

Data set [4] has as its target in vitro activated urease (Helicobacter pylori, UniProt P69996). It is filed as biochemical.
Where [5] appears, read: compound added along with activation buffer.

Chain of in vitro activated urease (P69996 whole entry, looked up): as above

Consider `[Fe+2]` [Fe^++], for which, in data set [1], the “effect of other metal ion on activation of recombinant urease by Ni++” value (from here on “effect of other metal ion … by Ni++”) is listed as “inhibited activation; also recorded: antagonistic effects”. Also, the “effect of other metal ion on Ni++ activation by native PAGE and silver staining” value in data set [2] is reported as “inhibitory effect”.
As for `OC[C@H]1O[C@@](CO)(O[C@H]2O[C@H](CO)[C@@H](O)[C@H](O)[C@H]2O)[C@@H](O)[C@@H]1O` [Sucrose], the “effect of additive on molecular association of urease” value in data set [3] is reported as “significantly reduced the extent of aggregation”.
Same read-out and setting: next, `OCCS` [β-mercaptoethanol]: “stabilized urease in the hexameric form; also recorded: prevented the molecular associations”.
As for `CCN1C(=O)C=CC1=O` [NEM, N-ethyl maleimide], in data set [1] (9 mM NEM, room temperature, 60 minutes, 20 mM Hepes pH 7.5), the “activation by bicarbonate and nickel of NEM-modified apourease” value was “not activated”.
On to `[Co+2]` [Co^++], for which, in data set [1], the “activation of recombinant urease by metal ion with bicarbonate” value (from here on “activation … with bicarbonate”) is reported as “do not cause urease activation” and the “effect of other metal ion … by Ni++” value was “inhibit activation”.
As to `O=C(O)CN(CCN(CC(=O)O)CC(=O)O)CC(=O)O` [EDTA], the “effect of additive on molecular association of urease” value in data set [3] was “did not have any significant effect”.
Consider `[Mn+2]` [Mn^++], for which, in data set [1], the “activation … with bicarbonate” value is given as “resulted in activation of urease” and the “effect of other metal ion … by Ni++” value is reported as “enhanced the activation; also recorded: synergistic effect”.
Turning to `[Mg+2]` [Mg^++], in data set [1], the “effect of other metal ion … by Ni++” value is reported as “no detectable effect”.
For `NC(=O)CI` [iodoacetamide], the “activation with compound included in the activation mixture” value (“activation with compound included” below) in data set [1] (setting [5]) is given as “blocking of activation”. Also, in data set [1], the “activation of modified urease after removal of excess modifying agent” value is reported as “not activated”; the “activation with Ni++ and bicarbonate of urease modified by the compound” value was “not activated; also recorded: inhibits activation”. Besides, the “effect of blocking free sulfhydryl groups on molecular association of urease” value in data set [3] is “stabilizing effect on urease in solution; also recorded: reduce the molecular associations; also recorded: stabilized the hexameric form of urease and prevented molecular association”.
`O=[N+]([O-])c1ccc(F)c([N+](=O)[O-])c1` [DNFB, dinitrofluorobenzene]: in data set [1], the “activation with compound included” value is recorded as “activation is blocked”; the “in vitro activation after DNFB treatment for 5, 15, 30, and 60 minutes” value is reported as “blocks in vitro activation”; the “pH dependence of DNFB blocking of in vitro activation” value is given as “more effective at alkaline pH (pH>7.5) than at neutral or acidic pH; also recorded: pH-dependent”. Further, the “in vitro activation of apourease modified with DNFB” value in data set [1] (pH 8) is “blocked in vitro activation; also recorded: not activated”. Further, the “effect of DNFB on pre-activated urease activity” value in data set [4] is reported as “inactivates pre-activated urease in a pH-dependent manner”. Moreover, the “effect of DNFB treatment on molecular stability” value in data set [3] (dialyzed against phosphate buffer overnight) is on record as “stabilizes the hexameric form of urease”.
For `[Cu+2]` [Cu^++], in data set [1], the “effect of other metal ion … by Ni++” value is reported as “inhibited activation; also recorded: antagonistic effects”. For the same molecule, the “effect of other metal ion on Ni++ activation by native PAGE and silver staining” value in data set [2] is “inhibitory effect”.
As to `c1c[nH]cn1` [imidazole], the “effect of imidazole on activation by Ni++ and bicarbonate” value is “inhibits urease activation” in data set [2] and “inhibit the activation of recombinant urease in a concentration-dependent manner” in data set [2] (listed as Imidazole).
As to `O=C(O)c1cc(SSc2ccc([N+](=O)[O-])c(C(=O)O)c2)ccc1[N+](=O)[O-]` [DTNB, 5-5′-dithio-bis-2-nitrobenzoic acid], in data set [1] (setting [5]), the “activation with compound included” value is “blocking of activation”. Further, in data set [1], the “activation of modified urease after removal of excess modifying agent” value is on record as “not activated”; the “activation with Ni++ and bicarbonate of urease modified by the compound” value is on record as “not activated”. The “effect of blocking free sulfhydryl groups on molecular association of urease” value in data set [3] is “stabilizing effect on urease in solution; also recorded: reduce the molecular associations; also recorded: stabilized the hexamer form of urease and prevented molecular association”.
As for `[Ni+2]` [Ni^++], in data set [1], the “activation … with bicarbonate” value is given as “resulted in activation of urease”.
